31 compounds from patent publication US20050124562A1, “Bis-quinazoline compounds for the treatment of bacterial infections” (priority 2003, published 2005) can be followed below.

In general, MIC refers to the lowest concentration that inhibits growth of the organism.

SMILES strings stand for the structures. Values after ≈ are worked out from the molar mass of the structure shown.

The subject of one assay is S. aureus, E. faecalis, S. pyogenes and S. pneumoniae. The assay can be described thus: Broth microdilution MIC (NCCLS), gram-positive strains. The assay is classed as cell-based.
Settings: not given
How it is done:
Representative bis-quinazolines were tested for antibacterial activity using the […] microdilution method to determine their minimum inhibitory concentrations (MICs). All compounds were tested using standard methods in accordance with NCCLS guidelines (National Committee for Clinical Laboratory Standards. 2003. Methods for dilution antimicrobial susceptibility testing for bacteria that grow aerobically. Approved Standard M-7 A-6, NCCLS, Wayne, Pa.). The bacterial strains used in the susceptibility tests were obtained from the American Type Culture Collection (ATCC) and included resistant phenotypes such as oxacillin-resistant S. aureus (ORSA) and vancomycin-resistant enterococci (VRE). The minimum bactericidal concentrations (MBCs) were determined for selected organisms. The effect of protein binding on the antibacterial activity of representative bis-quinazolines were determined by conducting MIC tests in the presence of human serum.
(In general: In broth dilution the organism is exposed to a series of concentrations in liquid medium.)
On to `Cc1nc(Nc2nc(O)c3ccccc3n2)nc2cc3c(cc12)OCO3` [Example 15, 2-(8-Methyl-[1,3]dioxolo[4,5-g]quinazolin-6-ylamino)-quinazolin-4-ol], for which the MIC lay in the range of 0.06 to 16 µg/mL (≈ 0.173 to 46.1 µM).

Take `COc1cc(OC)c2nc(Nc3nc(O)c4cccc(OC)c4n3)nc(C)c2c1` [Example 11, 2-(6,8-Dimethoxy-4-methyl-quinazolin-2-ylamino)-8-methoxy-quinazolin-4-ol]: the MIC lay within 0.06 to 16 µg/mL (≈ 0.153 to 40.7 µM).

The compound `COc1ccc2nc(Nc3nc(O)c4cc(OC)c(OC)cc4n3)nc(C)c2c1` [Example 62, 6,7-Dimethoxy-2-(6-methoxy-4-methyl-quinazolin-2-ylamino)-quinazolin-4-ol] showed an MIC of 0.06 to 16 µg/mL (≈ 0.153 to 40.7 µM).

The compound `COc1ccc2nc(Nc3nc(O)c4cccc(C)c4n3)nc(C)c2c1` [Example 65, 2-(6-Methoxy-4-methyl-quinazolin-2-ylamino)-8-methyl-quinazolin-4-ol] displayed an MIC of 0.06 to 16 µg/mL (≈ 0.173 to 46.1 µM).

As for `COc1cccc2c(O)nc(Nc3nc(C)c4ccc5c(c4n3)OCCO5)nc12` [Example 82, 8-Methoxy-2-(8-methyl-2,3-dihydro-1,4-dioxa-5,7-diaza-phenanthren-6-ylamino)-quinazolin-4-ol], the MIC is 0.06 to 16 µg/mL (≈ 0.153 to 40.9 µM).

On to `CCc1nc(Nc2nc(O)c3ccccc3n2)nc2ccc(OC)cc12` [Example 49, 2-(4-Ethyl-6-methoxy-quinazolin-2-ylamino)-quinazolin-4-ol], for which the MIC lay in the range of 0.06 to 16 µg/mL (≈ 0.173 to 46.1 µM).

The assay is the same for the next values; noted with them: range against some strains of S. aureus, E. faecalis, S. pyogenes and S. pneumoniae; read-out: MIC.
`COc1cc2nc(Nc3nc(O)c4cc(N5CCOCC5)ccc4n3)nc(C)c2cc1OC.O=C(O)C(F)(F)F` [Example 114, 2-(6,7-Dimethoxy-4-methyl-quinazolin-2-ylamino)-6-morpholin-4-yl-quinazolin-4-ol trifluoroacetate salt]: the MIC lay within 0.06 to 16 µg/mL.

Consider `COc1cccc2c(O)nc(Nc3nc(C)c4ccc(F)c(OC)c4n3)nc12.O=C(O)C(F)(F)F` [Example 117, 2-(7-Fluoro-8-methoxy-4-methyl-quinazolin-2-ylamino)-8-methoxy-quinazolin-4-ol trifluoroacetate salt], for which the MIC was 0.06 to 16 µg/mL.

Consider `COc1cc(OC)c2nc(Nc3nc(O)c4cc(OCCN5CCOCC5)ccc4n3)nc(C)c2c1.O=C(O)C(F)(F)F` [Example 141, 2-(6,8-Dimethoxy-4-methyl-quinazolin-2-ylamino)-6-(2-morpholin-4-yl-ethoxy)-quinazolin-4-ol trifluoroacetate salt], for which the MIC fell in the range of 0.06 to 16 µg/mL.

Regarding `COc1ccc(OC)c2c(C)nc(Nc3nc(O)c4cc(C)cc(C)c4n3)nc12.O=C(O)C(F)(F)F` [Example 43, 2-(5,8-Dimethoxy-4-methyl-quinazolin-2-ylamino)-6,8-dimethyl-quinazolin-4-ol trifluoroacetate salt], the MIC fell in the range of 0.06 to 16 µg/mL.

For the compound `COc1cc2nc(Nc3nc(O)c4c5c(ccc4n3)OCO5)nc(C)c2cc1OC.O=C(O)C(F)(F)F` [Example 109, 7-(6,7-Dimethoxy-4-methyl-quinazolin-2-ylamino)-1,3-dioxa-6,8-diaza-cyclopenta[a]naphthalen-9-ol trifluoroacetate salt], the MIC was in the range of 0.06 to 16 µg/mL.

For `COc1cc2nc(Nc3nc(O)c4cc(OCCNCCOCCO)ccc4n3)nc(C)c2cc1OC.O=C(O)C(F)(F)F` [Example 179, 2-(6,7-Dimethoxy-4-methyl-quinazolin-2-ylamino)-6-{2-[2-(2-hydroxy-ethoxy)-ethylamino]-ethoxy}-quinazolin-4-ol trifluoroacetate salt], the MIC was in the range of 0.06 to 16 µg/mL.

With `COc1cc2nc(Nc3nc(O)c4cc(OCCO)ccc4n3)nc(C)c2cc1OC.O=C(O)C(F)(F)F` [Example 136, 2-(6,7-Dimethoxy-4-methyl-quinazolin-2-ylamino)-6-(2-hydroxy-ethoxy)-quinazolin-4-ol trifluoroacetate salt], the MIC was in the range of 0.06 to 16 µg/mL.

Consider `COc1cc(OC)c2nc(Nc3nc(O)c4cc(OCCO)ccc4n3)nc(C)c2c1.O=C(O)C(F)(F)F` [Example 137, 2-(6,8-Dimethoxy-4-methyl-quinazolin-2-ylamino)-6-(2-hydroxy-ethoxy)-quinazolin-4-ol trifluoroacetate salt], for which the MIC lay in the range of 0.06 to 16 µg/mL.

For the compound `COc1cc(OC)c2nc(Nc3nc(O)c4c(OC)c(OC)ccc4n3)nc(C)c2c1.O=C(O)C(F)(F)F` [Example 134, 2-(6,8-Dimethoxy-4-methyl-quinazolin-2-ylamino)-5,6-dimethoxy-quinazolin-4-ol TFA salt], the MIC is 0.06 to 16 µg/mL.

For `CCOc1cccc2nc(Nc3nc(C)c4cc(OC)cc(OC)c4n3)nc(O)c12.O=C(O)C(F)(F)F` [Example 112, 2-(6,8-Dimethoxy-4-methyl-quinazolin-2-ylamino)-5-ethoxy-quinazolin-4-ol trifluoroacetate salt], the MIC was in the range of 0.06 to 16 µg/mL.

For `COc1cc2nc(Nc3nc(O)c4cc(OCCN5CCCCC5CO)ccc4n3)nc(C)c2cc1OC.O=C(O)C(F)(F)F` (stereo not shown) [Example 173, 2-(6,7-Dimethoxy-4-methyl-quinazolin-2-ylamino)-6-[2-(2-hydroxymethyl-piperidin-1-yl)-ethoxy]-quinazolin-4-ol trifluoroacetate salt], the minimal inhibitory concentration (MIC) lay within 0.06 to 16 µg/mL.

Take `COc1cc2nc(Nc3nc(O)c4cc(OCCn5cnnc5)ccc4n3)nc(C)c2cc1OC.O=C(O)C(F)(F)F` [Example 174, 2-(6,7-Dimethoxy-4-methyl-quinazolin-2-ylamino)-6-(2-[1,2,4]triazol-4-yl-ethoxy)-quinazolin-4-ol trifluoroacetate salt]: the MIC was in the range of 0.06 to 16 µg/mL.

As for `COc1cc2nc(Nc3nc(O)c4cc(OCCN(C)Cc5cccnc5)ccc4n3)nc(C)c2cc1OC.O=C(O)C(F)(F)F` [Example 182, 2-(6,7-Dimethoxy-4-methyl-quinazolin-2-ylamino)-6-[2-(methyl-pyridin-3-ylmethyl-amino)-ethoxy]-quinazolin-4-ol trifluoroacetate salt], the MIC fell in the range of 0.06 to 16 µg/mL.

With `COc1cc2nc(Nc3nc(O)c4cc(OCCN5CCN(CCO)CC5)ccc4n3)nc(C)c2cc1OC.O=C(O)C(F)(F)F` [Example 175, 2-(6,7-Dimethoxy-4-methyl-quinazolin-2-ylamino)-6-{2-[4-(2-hydroxy-ethyl)-piperazin-1-yl]-ethoxy}-quinazolin-4-ol trifluoroacetate salt], the MIC lay in the range of 0.06 to 16 µg/mL.

In the case of `COc1cc2nc(Nc3nc(O)c4cc(OCCN(C)CCO)ccc4n3)nc(C)c2cc1OC.O=C(O)C(F)(F)F` [Example 139, 2-(6,7-Dimethoxy-4-methyl-quinazolin-2-ylamino)-6-{2-[(2-hydroxy-ethyl)-methyl-amino]-ethoxy}-quinazolin-4-ol trifluoroacetate salt], the MIC lay within 0.06 to 16 µg/mL.

With `COc1ccc2nc(Nc3nc(O)c4cc(N)cc(OC)c4n3)nc(C)c2c1.O=C(O)C(F)(F)F` [Example 123, 6-Amino-2-(6-methoxy-4-methyl-quinazolin-2-ylamino)-8-methoxy-quinazolin-4-ol trifluoroacetate salt], the MIC was 0.06 to 16 µg/mL.

As to `COc1ccc2nc(Nc3nc(O)c4ccccc4n3)nc(CF)c2c1.O=C(O)C(F)(F)F` [Example 45, 2-(4-Fluoromethyl-6-methoxy-quinazolin-2-ylamino)-quinazolin-4-ol trifluoroacetate salt], the MIC was in the range of 0.06 to 16 µg/mL.

As to `COCCOc1cc(OC)cc2c(C)nc(Nc3nc(O)c4cccc(OC)c4n3)nc12.O=C(O)C(F)(F)F` [Example 79, 8-Methoxy-2-[6-methoxy-8-(2-methoxy-ethoxy)-4-methyl-quinazolin-2-ylamino]-quinazolin-4-ol trifluoroacetate salt], the MIC was 0.06 to 16 µg/mL.

Regarding `COc1cc2c(C)nc(Nc3nc(O)c4cccc(OC)c4n3)nc2c(OC)c1OC.O=C(O)C(F)(F)F` [Example 116, 8-Methoxy-2-(6,7,8-trimethoxy-4-methyl-quinazolin-2-ylamino)-quinazolin-4-ol trifluoroacetate salt], the MIC lay in the range of 0.06 to 16 µg/mL.

Consider `CSc1ccc2nc(Nc3nc(O)c4ccccc4n3)nc(C)c2c1.O=C(O)C(F)(F)F` [Example 35, 2-(4-Methyl-6-methylsulfanyl-quinazolin-2-ylamino)-quinazolin-4-ol trifluoroacetate salt], for which the MIC fell in the range of 0.06 to 16 µg/mL.

For `COc1cc(OC)c2nc(Nc3nc(O)c4cc(C)cc(C)c4n3)nc(C)c2c1.O=C(O)C(F)(F)F` [Example 75, 2-(6,8-Dimethoxy-4-methyl-quinazolin-2-ylamino)-6,8-dimethyl-quinazolin-4-ol trifluoroacetate salt], the MIC was 0.06 to 16 µg/mL.

With `COc1cc2nc(Nc3nc(O)c4cc(OCCNCCc5ccncc5)ccc4n3)nc(C)c2cc1OC.O=C(O)C(F)(F)F` [Example 183, 2-(6,7-Dimethoxy-4-methyl-quinazolin-2-ylamino)-6-[2-(2-pyridin-4-yl-ethylamino)-ethoxy]-quinazolin-4-ol TFA salt], the MIC was 0.06 to 16 µg/mL.

For `COCCOc1ccc2nc(Nc3nc(O)c4cc([N+](=O)[O-])cc(C)c4n3)nc(C)c2c1.O=C(O)C(F)(F)F` [Example 69, 2-[6-(2-Methoxy-ethoxy)-4-methyl-quinazolin-2-ylamino]-8-methyl-6-nitro-quinazolin-4-ol trifluoroacetate salt], the MIC is 0.06 to 16 µg/mL.

Turning to `COc1cc2nc(Nc3nc(O)c4cc(OCCNC5CCCCC5O)ccc4n3)nc(C)c2cc1OC.O=C(O)C(F)(F)F` (stereo not shown) [Example 181, 2-(6,7-Dimethoxy-4-methyl-quinazolin-2-ylamino)-6-[2-(2-hydroxy-cyclohexylamino)-ethoxy]-quinazolin-4-ol trifluoroacetate salt], the MIC lay in the range of 0.06 to 16 µg/mL.

In the case of `COc1cc(OC)c2nc(Nc3nc(O)c4c(OC)ccc(OC)c4n3)nc(C)c2c1.O=C(O)C(F)(F)F` [Example 100, 2-(6,8-Dimethoxy-4-methyl-quinazolin-2-ylamino)-5,8-dimethoxy-quinazolin-4-ol trifluoroacetate salt], the MIC was 0.06 to 16 µg/mL.
